{"source": "patent US20160326540A1", "about": "“Methods and Compositions Employing a Sulfonylurea-Dependent Stabilization Domain” (PIONEER HI-BRED INTERNATIONAL, INC., priority 2013, published 2016)", "key": {"S. cereviseae BY4742 [1]": {"tested_on": "S. cereviseae BY4742", "experiment": "GFP destabilization/re-stabilization assay of TetR::AcGFP fusions in yeast liquid culture +/- atc", "type": "cell-based, Saccharomyces cereviseae", "conditions": "TetR::AcGFP fusion, galactose induced, 6 hrs growth, FIG. 3", "description": "The third mutation, 122D (Reichheld and Davidson 2006), is a constitutive mutation in the presence or absence of ligand. Both L17G and I22D lie in the DNA binding domain (DBD) whereas G96R is in alpha helix 6 within the ligand binding domain (LBD). To test the effect of these mutations for ligand gated stability a GFP destabilization/re-stabilization assay (FIG. 1) was created. To do this a fusion between the coding regions of TetR B (Wray et al. 1981) and AcGFP (Gurskaya et al. 2003) by PCR amplifying the TetR region from plasmid pVER7568 using primers REPS' and TetR::AcGFP Rev and the AcGFP coding region from plasmid pHD1010 with primers TetR::AcGFP For and AcGFP3′ (Table 2) was created. The PCR products were then combined and subjected to overlap extension PCR using primers REPS' and AcGFP3′. The resulting full length PCR fusion product was then cloned into the Galactose inducible yeast expression vector p415GAL (ATCC#87330) as an XbaI/HindIII fragment. […] 100 ul aliquots of resuspended cells were placed into clear bottom black 96-well plates and their fluorescence determined with a Typhoon Laser Image Scanner (GE: […]). […]"}, "S. cereviseae BY4742 [2]": {"tested_on": "S. cereviseae BY4742", "experiment": "GFP fluorescence of wt and L17G repressor::GFP fusions in yeast on agar +/- atc, ethametsulfuron or chlorsulfuron, incl. dose response", "type": "cell-based, Saccharomyces cereviseae", "conditions": "5-10 uM atc, destabilized (L17G) fusion, FIG. 7", "description": "Next, we wanted to determine if a similar ligand enhanced protein accumulation effect would translate to our SU repressor backbones. […] Given the number of changes to the parent sequence and the 100% change in ligand preference it was not clear if they would behave in a similar manner. […] This was done by PCR amplifying the above coding regions with primers REPS' and EsR(L3-23) Rev, EsR(L15-20) Rev, or CsR(L4-20) Rev (Table 2), digesting each PCR product with StuI/BamHI and cloning each product into StuI/BamHI digested backbone fragments of pHD1184 and pHD2012 to give both wt and L17G mutant DNA binding domain combinations, respectively for most of the SuR's (schematic in FIG. 4). The resulting vectors (Table 4) were then transformed into S. cereviseae BY4742 as for pHD1184 (above). Each strain was then grown overnight in YPD medium and the cultures arrayed in 96-well format such that there were four repeats of every strain per plate. The array was then stamped onto 40 ml DOBA agar supplemented with 2% galactose, 0.025% casamino acids, and either 10 uM atc, ethametsulfuron, chlorsulfuron or no addition as the control. The plates were grown two days at 30° C. and imaged using a Typhoon laser scanning imager (GE) with excitation and emission set at 488 and 520 nm respectively. […]"}}}
{"substance": "TetR(L17G)", "values": [{"measurement": "accumulation of GFP compared to wt TetR", "setting": "S. cereviseae BY4742 [1]", "result": "significant negative impact"}, {"measurement": "GFP response to ligand (dose response)", "setting": "S. cereviseae BY4742 [2]", "result": "~10", "unit": "×"}]}
{"substance": "TetR(G96R)", "values": [{"measurement": "accumulation of GFP compared to wt TetR", "setting": "S. cereviseae BY4742 [1]", "result": "significant negative impact"}]}
